# Literature values in US8551985B2, “Carbinol derivatives having heterocyclic linker” (Kowa Company, Ltd., priority 2009, dated 2013).
# Target: T1, LXRβ (Homo sapiens, UniProt P55055)
# T1 sequence (P55055 1-460): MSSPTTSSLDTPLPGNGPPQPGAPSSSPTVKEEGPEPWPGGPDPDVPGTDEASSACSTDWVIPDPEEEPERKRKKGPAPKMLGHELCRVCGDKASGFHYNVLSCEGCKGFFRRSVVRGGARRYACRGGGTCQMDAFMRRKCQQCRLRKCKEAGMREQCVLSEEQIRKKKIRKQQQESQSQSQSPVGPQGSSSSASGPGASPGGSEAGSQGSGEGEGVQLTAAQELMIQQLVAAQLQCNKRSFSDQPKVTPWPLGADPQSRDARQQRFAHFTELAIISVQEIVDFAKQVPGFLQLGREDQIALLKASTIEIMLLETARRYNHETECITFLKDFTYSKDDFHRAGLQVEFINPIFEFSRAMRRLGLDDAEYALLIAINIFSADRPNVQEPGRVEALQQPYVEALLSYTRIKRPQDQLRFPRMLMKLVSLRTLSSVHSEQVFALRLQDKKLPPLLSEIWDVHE
smiles,measurement,value
O=C(O)Cc1ccc(COc2cccc(-c3c(Cc4ccccc4)cnc4c(C(F)(F)F)cccc34)c2)cc1 [WAY-254011],LXRβ-selective binding affinity (α/β ratio),1 to 5
